Source: paper PMC6010071, “Blocking oestradiol synthesis pathways with potent and selective coumarin derivatives” (Journal of Enzyme Inhibition and Medicinal Chemistry, 2018)

Experiments:
Format in all cases: biochemical
recombinant human HSD1 = target: T1, recombinant human HSD1 (Homo sapiens, UniProt P14061); experiment: HSD1 inhibition, HPLC assay of [3H]-E1 to [3H]-E2 conversion
T1 construct: made in house; host or cells: Sf9 insect cells
T1 sequence (P14061 1-328): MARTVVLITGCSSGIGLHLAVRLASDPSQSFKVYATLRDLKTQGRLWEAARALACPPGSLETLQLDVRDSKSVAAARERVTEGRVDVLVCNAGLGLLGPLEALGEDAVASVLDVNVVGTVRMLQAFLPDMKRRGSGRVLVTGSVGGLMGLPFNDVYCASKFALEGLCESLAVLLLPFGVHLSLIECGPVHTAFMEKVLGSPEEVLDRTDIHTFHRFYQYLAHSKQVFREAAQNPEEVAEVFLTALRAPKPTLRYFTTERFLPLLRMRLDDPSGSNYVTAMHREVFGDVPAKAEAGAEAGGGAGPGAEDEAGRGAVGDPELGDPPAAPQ
Protocol: The inhibition was determined by HPLC using recombinant human HSD1 and HSD2 proteins as described in a prior study. In short, recombinant human HSD1 and HSD2 were produced in Sf9-insect cells. […] After incubation, the reaction was stopped by addition of […] 10% trichloroacetic acid per sample. […] The ratio of [3H]-E1 converted to [3H]-E2 or vice versa determines the conversion percentage of the samples. Inhibition was measured in three concentrations (100 nM, 1, and 5 µM) in order to follow the progression of inhibition efficiencies. Inhibition efficiencies of the tested inhibitors were calculated by comparing the conversion percentages of the samples including inhibitors with those of conversion controls (without inhibitors).

MAO-B = target: T2, MAO-B (Homo sapiens, UniProt P27338); experiment: MAO-B inhibition, continuous spectrophotometric assay
T2 construct: purchased Sigma-Aldrich (St. Louis, MO)
T2 sequence (P27338 1-520): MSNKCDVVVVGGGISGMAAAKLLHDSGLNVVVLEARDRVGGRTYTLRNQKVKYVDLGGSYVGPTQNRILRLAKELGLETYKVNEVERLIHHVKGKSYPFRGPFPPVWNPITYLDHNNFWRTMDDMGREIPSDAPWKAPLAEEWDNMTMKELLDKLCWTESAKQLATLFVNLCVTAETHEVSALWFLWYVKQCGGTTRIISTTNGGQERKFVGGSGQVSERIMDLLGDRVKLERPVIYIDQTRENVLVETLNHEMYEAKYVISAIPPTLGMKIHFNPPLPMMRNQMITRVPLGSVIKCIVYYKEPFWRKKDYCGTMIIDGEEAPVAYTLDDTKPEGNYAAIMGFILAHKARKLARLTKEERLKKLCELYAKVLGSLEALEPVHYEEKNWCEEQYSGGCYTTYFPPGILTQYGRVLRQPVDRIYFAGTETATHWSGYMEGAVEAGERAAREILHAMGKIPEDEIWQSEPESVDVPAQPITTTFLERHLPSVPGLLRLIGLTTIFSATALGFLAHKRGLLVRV
Protocol: The protocol of continuous spectrophotometric assay by Holt et al. was first used to determine the activity of the proteins. […] The protein was first incubated for 30 min at 37 °C in the chromogenic solution and then the substrate tyramine was introduced at 0.5 mM final plate concentration completing the assay volume. […] The assay should produce absorbance change of ∼0.35[23]. […] These protein concentrations were selected to be used to analyse the molecules 1–9. The analysis conditions followed the above-described assay protocol[23] and the activity of tested molecules was measured at 100 µM for MAO-A and at 10 µM for MAO-B. The analysis was performed as single point measurements and the signal was read by the same instrument at the expected assay maximum indicated by the activity measurements, at 30 min for MAO-A and at 2 h for MAO-B, respectively. […] The observed activity was calculated as inhibition percentage (Table 1).

[1] = target: T3, heterologously expressed human CYP1A2 enzyme (Homo sapiens, UniProt P05177); experiment: CYP1A2 inhibition; settings: read-out: CYP1A2 inhibition ∼ pIC50 (converted)
T3 construct: purchased Corning Inc., Corning, NY
T3 sequence (P05177 1-516): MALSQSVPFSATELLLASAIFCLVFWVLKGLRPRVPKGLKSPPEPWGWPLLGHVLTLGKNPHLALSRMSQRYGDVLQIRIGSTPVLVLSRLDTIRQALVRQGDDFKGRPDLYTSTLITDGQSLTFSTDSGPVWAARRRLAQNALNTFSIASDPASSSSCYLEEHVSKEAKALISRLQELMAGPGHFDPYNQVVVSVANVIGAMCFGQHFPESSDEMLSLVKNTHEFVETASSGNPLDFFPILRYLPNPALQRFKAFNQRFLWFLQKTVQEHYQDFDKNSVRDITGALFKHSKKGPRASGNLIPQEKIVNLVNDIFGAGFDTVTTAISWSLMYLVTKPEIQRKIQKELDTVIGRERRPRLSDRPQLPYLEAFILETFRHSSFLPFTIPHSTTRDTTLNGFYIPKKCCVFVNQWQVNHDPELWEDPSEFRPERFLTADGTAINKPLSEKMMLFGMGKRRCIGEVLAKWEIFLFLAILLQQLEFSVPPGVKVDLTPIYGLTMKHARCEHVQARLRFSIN
Protocol: Inhibition of CYP1A2 activity was determined using commercial heterologously expressed human CYP1A2 enzyme (Corning Inc., Corning, NY) essentially as described previously.

[2] = target: T4, Aromatase (CYP19A1), human placental microsomes (Homo sapiens, UniProt P11511); experiment: Aromatase activity, [3H]-H2O release from [3H]-androstenedione; settings: 50 nM [3H]-androstenedione; inhibitor 60–1000 nM; read-out: Aromatase inhibition ∼ pIC50 (converted)
T4 construct: by using human placental microsomes; from tissue; host or cells: human placental microsomes
T4 sequence (P11511 1-503): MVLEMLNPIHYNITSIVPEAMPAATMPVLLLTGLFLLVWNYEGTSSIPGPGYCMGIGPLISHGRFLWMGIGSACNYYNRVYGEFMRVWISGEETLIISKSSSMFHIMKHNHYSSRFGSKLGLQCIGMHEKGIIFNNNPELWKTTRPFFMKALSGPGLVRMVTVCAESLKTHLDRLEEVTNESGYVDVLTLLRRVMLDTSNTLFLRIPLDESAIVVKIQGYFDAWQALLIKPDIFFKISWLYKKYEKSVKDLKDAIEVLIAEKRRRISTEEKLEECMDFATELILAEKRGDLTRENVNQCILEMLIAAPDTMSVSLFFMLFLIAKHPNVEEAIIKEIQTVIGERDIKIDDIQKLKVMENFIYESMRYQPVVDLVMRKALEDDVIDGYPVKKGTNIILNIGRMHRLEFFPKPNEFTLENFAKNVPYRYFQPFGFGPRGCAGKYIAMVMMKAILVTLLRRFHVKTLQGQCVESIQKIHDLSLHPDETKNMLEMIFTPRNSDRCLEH
Protocol: Aromatase (CYP19A1) activity was measured as described previously[22] by using human placental microsomes and 50 nM [3H]-androstenedione as a substrate and inhibitor concentrations in the range of 60–1000 nM. Aromatase activities were measured as released [3H]-H2O in Optiphase Hisafe 2 scintillation liquid (Perkin Elmer, Waltham, MA) with a Wallac 1450 MicroBeta Trilux scintillation counter (Perkin Elmer, Waltham, MA). As a positive control for aromatase inhibition, 1 µM finrozole (generous gift from Olavi Pelkonen, University of Oulu, Finland) was used.

recombinant human HSD2 = target: T5, recombinant human HSD2 (Homo sapiens, UniProt P37059); experiment: HSD2 inhibition, HPLC assay of [3H]-E2 to [3H]-E1 conversion
T5 construct: made in house; host or cells: Sf9 insect cells
T5 sequence (P37059 1-387): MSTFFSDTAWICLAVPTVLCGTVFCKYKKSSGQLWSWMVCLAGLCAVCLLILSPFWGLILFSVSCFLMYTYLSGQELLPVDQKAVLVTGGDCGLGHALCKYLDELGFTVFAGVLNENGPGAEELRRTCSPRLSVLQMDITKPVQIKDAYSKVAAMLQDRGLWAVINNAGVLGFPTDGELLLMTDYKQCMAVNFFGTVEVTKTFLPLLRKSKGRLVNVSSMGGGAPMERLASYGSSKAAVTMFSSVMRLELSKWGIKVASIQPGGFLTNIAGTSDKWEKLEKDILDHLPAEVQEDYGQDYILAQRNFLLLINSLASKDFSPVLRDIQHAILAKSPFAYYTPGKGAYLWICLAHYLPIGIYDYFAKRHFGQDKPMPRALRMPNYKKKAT
Protocol: The inhibition was determined by HPLC using recombinant human HSD1 and HSD2 proteins as described in a prior study. In short, recombinant human HSD1 and HSD2 were produced in Sf9-insect cells. […]. After incubation, the reaction was stopped by addition of […] 10% trichloroacetic acid per sample. After incubation the substrate and the product of enzymatic conversion [3H]-E1 and [3H]-E2 were separated and quantified by HPLC (Alliance 2790, Waters, Milford, MA) connected to an online counter (Packard Flow Scintillation Analyser; Perkin Elmer Inc., Waltham, […]). The ratio of [3H]-E1 converted to [3H]-E2 or vice versa determines the conversion percentage of the samples. Inhibition was measured in three concentrations (100 nM, 1, and 5 µM) in order to follow the progression of inhibition efficiencies. Inhibition efficiencies of the tested inhibitors were calculated by comparing the conversion percentages of the samples including inhibitors with those of conversion controls (without inhibitors).

Structure (SMILES)	HSD1 inhibition (in words) (recombinant human HSD1)	inhibition at 0.1 µM (recombinant human HSD1; 100 nM, average of two measurements, except for compounds 8 and 9, read-out: HSD1 inhibition at 100 nM) [%]	inhibition at 1 µM (recombinant human HSD1; 1 µM, average of three measurements, except for compounds 8 and 9, read-out: HSD1 inhibition at 1 µM) [%]	IC50 (recombinant human HSD1; estimated from three measurements at 1 µM, average ± standard error, read-out: HSD1 inhibition ∼ pIC50 (converted)) [nM]	MAO-B inhibition (in words) (MAO-B)	inhibition at 10 µM (MAO-B; 10 µM, single point, read at 2 h, read-out: MAO-B inhibition at 10 µM) [%]	IC50 [1] [nM]	IC50 [2] [nM]	inhibition at 0.1 µM (recombinant human HSD2; 100 nM, control) [%]	inhibition at 1 µM (recombinant human HSD2; read-out: HSD2 inhibition at 1 µM) [%]
O=c1oc2ccccc2cc1-n1ccnc1 [Compound 10, 3–(1H-imidazol-1-yl)-2H-chromen-2-one]	blocking neither HSD1 nor MAO-B	1	1	> 5010	blocking neither HSD1 nor MAO-B	11	115	77.6	–	–
O=c1c(Oc2ccc(Cl)cc2)coc2cc(O)cc(O)c12 [HM2001, 3–(4-Chlorophenoxy)-5,7-dihydroxychromen-4-one, reference compound]	–	–	–	–	–	–	–	–	62.3	100
